± gives the expanded uncertainty stated by the source.
Details: 101.33 kPa, Liquid; for speed of sound: Sing-around technique in a fixed-path interferometer

SMILES: COC(C)(C)C [2-methoxy-2-methylpropane]
- mass density (288.15 K): 745.79 ± 0.27 kg/m3
- speed of sound (288.15 K): 1082.4 ± 1.2 m/s
- mass density (293.15 K): 740.6 ± 0.28 kg/m3
- speed of sound (293.15 K): 1059.4 ± 1.2 m/s
- mass density (298.15 K): 735.35 ± 0.28 kg/m3
- speed of sound (298.15 K): 1036.1 ± 1.2 m/s
- mass density (303.15 K): 730.06 ± 0.28 kg/m3
- speed of sound (303.15 K): 1013 ± 1.2 m/s
- mass density (308.15 K): 724.73 ± 0.29 kg/m3
- speed of sound (308.15 K): 990.1 ± 1.1 m/s

SMILES: CCCCO [butan-1-ol]
- mass density (288.15 K): 813.24 ± 0.4 kg/m3
- speed of sound (288.15 K): 1273.7 ± 1.7 m/s
- mass density (293.15 K): 809.48 ± 0.4 kg/m3
- speed of sound (293.15 K): 1257 ± 1.7 m/s
- mass density (298.15 K): 805.67 ± 0.4 kg/m3
- speed of sound (298.15 K): 1239.8 ± 1.7 m/s
- mass density (303.15 K): 801.85 ± 0.4 kg/m3
- speed of sound (303.15 K): 1222.7 ± 1.7 m/s
- mass density (308.15 K): 797.99 ± 0.41 kg/m3
- speed of sound (308.15 K): 1205.9 ± 1.7 m/s

SMILES: CCCCCC [hexane]
- mass density (288.15 K): 663.87 ± 0.68 kg/m3
- speed of sound (288.15 K): 1121.4 ± 1.3 m/s
- mass density (293.15 K): 659.44 ± 0.69 kg/m3
- speed of sound (293.15 K): 1099 ± 1.3 m/s
- mass density (298.15 K): 654.95 ± 0.7 kg/m3
- speed of sound (298.15 K): 1076.3 ± 1.2 m/s
- mass density (303.15 K): 650.4 ± 0.7 kg/m3
- speed of sound (303.15 K): 1053.6 ± 1.2 m/s
- mass density (308.15 K): 645.82 ± 0.71 kg/m3
- speed of sound (308.15 K): 1031.1 ± 1.2 m/s

Reference: the NIST ThermoML archive (doi:10.1016/j.jct.2007.02.002)
